Reference: PubChem BioAssay (NCI)
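Step 1: Grow cells in 96-well plates. Step 2: Expose to compound for 48 hours at 5 concentrations. Step 3: Interpolate endpoints linearly; if unreached, use highest concentration. Definition used: TGI = concentration required for complete inhibition of growth.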

Key:
Experiment in all cases: growth of human tumour cells (NCI), 48 h
[1] = system: RXF 393 renal
[2] = system: SNB-75 CNS
[3] = system: NCI-H23 lung
[4] = system: SF-539 CNS
[5] = system: SNB-19 CNS
[6] = system: HT29 colon
[7] = system: HCT-116 colon
[8] = system: OVCAR-4 ovarian
[9] = system: MOLT-4 leukemia
[10] = system: K-562 leukemia
[11] = system: MCF7 breast
[12] = system: MDA-N
[13] = system: LOX IMVI melanoma
[14] = system: MDA-MB-435
[15] = system: DU-145 prostate
[16] = system: A498 renal
[17] = system: NCI/ADR-RES ovarian
[18] = system: EKVX NSCLC
[19] = system: KM12 colon
[20] = system: NCI-H522 lung

| Structure (SMILES) | TGI [1] | TGI [2] | TGI [3] | TGI [4] | TGI [5] | TGI [6] | TGI [7] | TGI [8] | TGI [9] | TGI [10] | TGI [11] | TGI [12] | TGI [13] | TGI [14] | TGI [15] | TGI [16] | TGI [17] | TGI [18] | TGI [19] | TGI [20] |
| --- | --- | --- | --- | --- | --- | --- | --- | --- | --- | --- | --- | --- | --- | --- | --- | --- | --- | --- | --- | --- |
| COc1ccc2nc3n(c2c1)C(c1c(F)cccc1F)SC3 (configuration not stated) | > 100 µM | > 100 µM | > 100 µM | > 100 µM | 93.3 µM | > 100 µM | 75.2 µM | > 100 µM | > 100 µM | > 100 µM | > 100 µM | > 100 µM | > 100 µM | > 100 µM | > 100 µM | > 100 µM | 59.2 µM | 55 µM | > 100 µM |  |
| O=C(Cn1c2c(c3ccccc31)CCCC2)N1CCCCC1 |  |  | > 100 µM | > 100 µM | > 100 µM | > 100 µM | > 100 µM | > 100 µM | > 100 µM |  | > 100 µM | > 100 µM | > 100 µM | > 100 µM |  |  | > 100 µM | > 100 µM |  |  |
| Cc1ccc(C)n2c1nc1cc3ccccc3cc12 | > 100 µM | 57.6 µM | > 100 µM | > 100 µM | > 100 µM |  | > 100 µM |  | 95.1 µM | > 100 µM | 16 µM | > 100 µM |  | > 100 µM | > 100 µM |  | > 100 µM | > 100 µM | > 100 µM |  |
| CC1=NN(C(=O)CC(=O)NC(=O)/C=C\c2ccccc2)C(=O)C1N=Nc1ccc([N+](=O)[O-])cc1 (configuration not stated) | > 100 µM | > 100 µM | > 100 µM | > 100 µM | > 100 µM | > 100 µM | > 100 µM |  | > 100 µM | > 100 µM | > 100 µM | > 100 µM | > 100 µM | > 100 µM | > 100 µM | > 100 µM | > 100 µM | > 100 µM | > 100 µM |  |
| CC(C)(C)[Si](C)(C)OCCc1ccccc1C1CC2(S(=O)(=O)c3ccccc3)ON1CC2S(=O)(=O)c1ccccc1 (configuration not stated) | > 100 µM | > 100 µM | > 100 µM | > 100 µM | > 100 µM | > 100 µM | > 100 µM | > 100 µM | > 100 µM | > 100 µM | > 100 µM | > 100 µM |  | > 100 µM | > 100 µM | > 100 µM | > 100 µM | > 100 µM | > 100 µM |  |
| Cc1ccc2c(c1)C=CC1(O2)N(c2ccccc2)C(=S)OC1(C)C (configuration not stated) | > 100 µM | > 100 µM | > 100 µM |  | > 100 µM | > 100 µM | > 100 µM | > 100 µM | > 100 µM | > 100 µM | > 100 µM | 94.3 µM | > 100 µM | > 100 µM | > 100 µM | > 100 µM | > 100 µM | > 100 µM | > 100 µM |  |
| CC(C)(C)n1c(=O)n(-c2ccccc2)n(C(C)(C)C)c1=O | > 100 µM | > 100 µM | > 100 µM | > 100 µM | > 100 µM | > 100 µM | > 100 µM | > 100 µM | > 100 µM | > 100 µM | > 100 µM | > 100 µM | > 100 µM |  |  | > 100 µM | > 100 µM | > 100 µM | > 100 µM |  |
| Cc1cc2c(nn1)CCc1c-2no[n+]1[O-] | > 100 µM | > 100 µM | > 100 µM | > 100 µM | > 100 µM | > 100 µM | > 100 µM | > 100 µM | > 100 µM | > 100 µM | > 100 µM | > 100 µM | > 100 µM | > 100 µM |  |  | > 100 µM | > 100 µM | > 100 µM | > 100 µM |
| COc1ccc(C(OCC2OC3(COC(c4ccccc4)(c4ccc(OC)cc4)c4ccc(OC)cc4)C(Oc4nc(=O)ccn43)C2O)(c2ccccc2)c2ccc(OC)cc2)cc1 (configuration not stated) | > 100 µM |  | > 100 µM | > 100 µM | > 100 µM | > 100 µM | > 100 µM | > 100 µM | > 100 µM | > 100 µM | > 100 µM | > 100 µM | > 100 µM | > 100 µM | > 100 µM |  | > 100 µM | > 100 µM | > 100 µM | > 100 µM |
| CC(=O)NC1CC(C(C)(C)NC(C)=O)CC=C1C (configuration not stated) |  | > 100 µM | > 100 µM | > 100 µM | > 100 µM | > 100 µM | > 100 µM | > 100 µM | > 100 µM | > 100 µM | > 100 µM | > 100 µM | > 100 µM | > 100 µM | > 100 µM |  | > 100 µM | > 100 µM | > 100 µM | > 100 µM |
